Tests used:
HT-29 = experiment: In vitro cell experiment (MTT), HT-29; assay type: cell-based; settings: 72 h, human colon carcinoma cells (expressing both c-KIT and PDGFR)
Protocol: (§1) Cells in logarithmic growth phase were seeded at a certain density in a 96-well plate (200 μL/well). The cells were allowed to grow for 24 h and subsequently treated with different concentrations of drugs (including a blank group and a control group) and incubated for 72 h at 37° C. Each concentration in a given experiment was tested in triplicate. After 72 h of exposure, 20 μL of the MTT labeling reagent was added to the medium (the final concentration of MTT was 0.5 mg/mL), and the cells were incubated for additional 4 h at 37° C. Following this process, 180 μL of the medium was removed and 130 μL of DMSO was added to each well, or the medium was completely removed and 150 μL of DMSO was added to each well. Then the plate was shaken and mixed in a micro-oscillator. Finally the optical density (OD) of each sample was measured in a micro-plate reader at 550 nm. Cell inhibition rate was calculated according to the following formula: […]
(§2) According to cell inhibition rates, IC50 was calculated by LOGIT method. The experiments were repeated twice and the data was expressed as means±SD.

A431 = experiment: In vitro cell experiment (MTT), A431; assay type: cell-based; settings: A-431, 72 h, human epidermoid carcinoma (EGFR1 overexpressing)
Protocol: as §1, §2

[1] = Mouse maximum tolerated dose (MTD) experiment; settings: in vivo, mice, oral, administered 7 days then observed 7 days
Protocol: In the mouse MTD experiment, the mice were administrated with the present compounds.
Healthy mice, having a small difference in body's weights, were chosen. The chosen mice were placed in different layers of cages according to their body's weights. In each layer, the mice were randomly divided into groups. In each group, there were three mice.
The administration dosages were 1000, 500, 250, 125, 62.5 and 31.25 mg/kg respectively and each two dosages differed by a factor of 2. For each of administration dosages, three mice were allotted. The mice were administrated with the present compounds for 7 days and then observed for the next 7 days without the present compounds.
The present compounds were orally administrated with the mice according to the administration dosage and the body weight.

HCT116 = experiment: In vitro cell experiment (MTT), HCT116; assay type: cell-based; settings: HCT-116, 72 h, human colon carcinoma cells
Protocol: as §1, §2

SK-OV-3 = experiment: In vitro cell experiment (MTT), SK-OV-3; assay type: cell-based; settings: 72 h, human ovarian carcinoma cells (EGFR2 overexpressing)
Protocol: as §1, §2

H292 = experiment: In vitro cell experiment (MTT), H292; assay type: cell-based; settings: NCI-H292, 72 h, human lung carcinoma cells (EGFR1 overexpressing)
Protocol: as §1, §2

A549 = experiment: In vitro cell experiment (MTT), A549; assay type: cell-based; settings: 72 h, human non-small-cell lung carcinoma cells (EGFR1 wildtype)
Protocol: as §1, §2

HCC827 = experiment: In vitro cell experiment (MTT), HCC827; assay type: cell-based; settings: 72 h, human non-small cell lung carcinoma (EGFR1 19 exon mutation)
Protocol: as §1, §2

HUVEC = experiment: In vitro cell experiment (MTT), HUVEC; assay type: cell-based; settings: 72 h, human umbilical vein endothelial cell (KDR overexpressing)
Protocol: as §1, §2

Bel-7402 = experiment: In vitro cell experiment (MTT), Bel-7402; assay type: cell-based; settings: 72 h, human hepatoma carcinoma cells
Protocol: as §1, §2

A375 = experiment: In vitro cell experiment (MTT), A375; assay type: cell-based; settings: A-375, 72 h, human melanoma cells (KDR expressing)
Protocol: as §1, §2

A498 = experiment: In vitro cell experiment (MTT), A498; assay type: cell-based; settings: 72 h, human renal carcinoma cells
Protocol: as §1, §2

3T3swiss = experiment: In vitro cell experiment (MTT), 3T3swiss; assay type: cell-based; settings: Fibroblast, 72 h, mouse fibroblasts (PDGFR overexpressing)
Protocol: as §1, §2

PC-9 = experiment: In vitro cell experiment (MTT), PC-9; assay type: cell-based; settings: 72 h, human non-small-cell lung carcinoma cells (EGFR1 19 exon mutation)
Protocol: as §1, §2

Compound	MTD [1] [mg/kg]	IC50 (SK-OV-3) [nM]	IC50 (A549) [nM]	IC50 (HCC827) [nM]	further results
COc1cc2c(Nc3ccc(Br)cc3F)ncnc2cc1OCc1ccc2c(c1)OCO2 [Compound 1, 4-(4-bromo-2-fluoroanilino)-6-methoxy-7-((1,3-benzodioxole-5-yl)methoxy)quinazoline]	500 to 1000	–	–	–	IC50 (HT-29): 2820 nM; IC50 (A431): 1410 nM
COc1cc2c(Nc3ccc(Br)cc3F)ncnc2cc1OCc1cccc(C#N)c1 [Compound 3, 4-(4-bromo-2-fluoroanilino)-6-methoxy-7-(3-cyanobenzyloxy) quinazoline]	500 to 1000	2020	–	–	IC50 (HCT116): 892 nM
COc1cc2c(Nc3ccc(Br)cc3F)ncnc2cc1OCc1ccc(C(F)(F)F)cc1 [Compound 5, 4-(4-bromo-2-fluoroanilino)-6-methoxy-7-(4-trifluoromethyl-benzyloxy)quinazoline]	–	–	–	–	IC50 (HCT116): 1040 nM
COc1cc2c(Nc3ccc(Br)cc3F)ncnc2cc1OCCCCCC(N)=O [Compound 6, 6-(4-(4-bromo-2-fluoroanilino)-6-methoxyquinazolin-7-yl-oxy)hexanamide]	> 1000	2650	3930	4.7	IC50 (H292): 46.9 nM; IC50 (A431): 2100 nM; IC50 (HUVEC): 37.6 nM
COc1cc2c(Nc3ccc(Br)cc3F)ncnc2cc1OCc1cccc(C)n1 [Compound 7, 4-(4-bromo-2-fluoroanilino)-6-methoxy-7-((6-methylpyridine-2-yl)methoxy)quinazoline]	62.5 to 125	–	–	8.6	–
COc1cc2c(Nc3ccc(Br)cc3F)ncnc2cc1OCCn1c(C)nc2ccccc21 [Compound 8, 4-(4-bromo-2-fluoroanilino)-6-methoxy-7-(2-(2-methyl-1H-benzo[d]imidazole-1-yl)ethoxy)quinazoline]	–	2770	–	–	–
COc1cc2c(Nc3ccc(Br)cc3F)ncnc2cc1OCc1ccc(N2CCOCC2)cc1 [Compound 12, 4-(4-bromo-2-fluoroanilino)-6-methoxy-7-(4-morpholinobenz-yloxy)quinazoline]	–	–	–	–	IC50 (HCT116): 1090 nM
COc1cc2c(Nc3ccc(Br)cc3F)ncnc2cc1OCCCn1ccnc1 [Compound 14, 4-(4-bromo-2-fluoroanilino)-6-methoxy-7-(3-(1H-imidazol-1-yl)propoxy)quinazoline]	62.5 to 125	2880	–	8.9	IC50 (H292): 37.4 nM; IC50 (Bel-7402): 5940 nM; IC50 (HCT116): 913 nM; IC50 (A375): 161 nM; IC50 (A498): 2730 nM
COc1cc2c(Nc3ccc(Br)cc3F)ncnc2cc1OCC1CCOCC1 [Compound 15, 4-(4-bromo-2-fluoroanilino)-6-methoxy-7-((tetrahydropyran-4-yl)methoxy)quinazoline]	–	–	–	–	IC50 (A431): 2950 nM
COc1cc2c(Nc3ccc(Br)cc3F)ncnc2cc1OCc1csc(C)n1 [Compound 17, 4-(4-bromo-2-fluoroanilino)-6-methoxy-7-((2-methylthiazole-4-yl)methoxy)quinazoline]	500 to 1000	–	–	6.7	–
COc1cc2c(Nc3ccc(Br)cc3F)ncnc2cc1Oc1ccc(C(=O)N2CCOCC2)cn1 [Compound 18, (6-(4-(4-bromo-2-fluoroanilino)-6-methoxyquinazolin-7-yl-oxy)pyridine-3-yl)(morpholino)methanone]	–	–	–	–	IC50 (HCT116): 962 nM
COc1cc2c(Nc3ccc(F)c(Cl)c3)ncnc2cc1OCCN1CCCC1 [Compound 20, 4-(3-chloro-4-fluoroanilino)-6-methoxy-7-(2-(pyrrolidine-1-yl)ethoxy)quinazoline]	125 to 250	–	2680	2.9	IC50 (Bel-7402): 5740 nM; IC50 (HT-29): 2230 nM; IC50 (A431): 2140 nM; IC50 (3T3swiss): 1720 nM
COc1cc2c(Nc3ccc(Br)cc3F)ncnc2cc1OCCCC(N)=O [Compound 23, 4-(4-(4-bromo-2-fluoroanilino)-6-methoxyquinazolin-7-yl-oxy)butanamide]	–	3360	1410	5	IC50 (3T3swiss): 2150 nM
COc1cc2c(Nc3ccc(F)c(Cl)c3)ncnc2cc1OCCCCCC(N)=O [Compound 24, 6-(4-(3-chloro-4-fluoroanilino)-6-methoxyquinazolin-7-yl-oxy)hexanamide]	125 to 250	2450	2940	5.6	IC50 (H292): 81.8 nM; IC50 (HT-29): 1840 nM
COc1cc2c(Nc3ccc(F)c(Cl)c3)ncnc2cc1OCCCn1ccnc1 [Compound 25, 4-(3-chloro-4-fluoroanilino)-6-methoxy-7-(3-(1H-imidazole-1-yl)propoxy)quinazoline]	–	–	–	2.6	–
COc1cc2c(Nc3ccc(Br)cc3F)ncnc2cc1OCCc1csc(C)n1 [Compound 26, 4-(4-bromo-2-fluoroanilino)-6-methoxy-7-(2-(2-methylthiazol-4-yl)ethoxy)quinazoline]	–	–	–	1.4	–
COc1cc2c(Nc3ccc(F)c(Cl)c3)ncnc2cc1OCc1cnc(C)s1 [Compound 27, 4-(3-chloro-4-fluoroanilino)-6-methoxy-7-((2-methylthiazol-5-yl)methoxy)quinazoline]	500 to 1000	–	3890	4.6	IC50 (H292): 78.3 nM; IC50 (HT-29): 2920 nM
COc1cc2c(Nc3ccc(F)c(Cl)c3)ncnc2cc1OCc1csc(C)n1 [Compound 27′, 4-(3-chloro-4-fluoroanilino)-6-methoxy-7-((2-methylthiazol-4-yl)methoxy)quinazoline]	–	–	–	6.2	–
CNC(=O)CCCCCOc1cc2ncnc(Nc3ccc(Br)cc3F)c2cc1OC [Compound 31, N-methyl-6-(4-(4-bromo-2-fluoroanilino)-6-methoxyquinazolin-7-yloxy)hexanamide]	–	–	–	10.7	–
COc1cc2c(Nc3ccc(Br)cc3F)ncnc2cc1OCCCCCC(=O)N(C)C [Compound 32, N, N-dimethyl-6-(4-(4-bromo-2-fluoroanilino)-6-methoxyquinazolin-7-yloxy)hexanamide]	500 to 1000	–	2700	11	IC50 (PC-9): 6.7 nM
COc1cc2c(Nc3ccc(Br)cc3F)ncnc2cc1OCCCCC(N)=O [Compound 33, 5-(4-(4-bromo-2-fluoroanilino)-6-methoxyquinazolin-7-yl-oxy)pentanamide]	62.5 to 125	–	3570	9.5	IC50 (H292): 73.4 nM; IC50 (PC-9): 8.3 nM
COc1cc2c(Nc3ccc(Br)cc3F)ncnc2cc1OCCn1ccnc1 [Compound 34, 4-(4-bromo-2-fluoroanilino)-6-methoxy-7-(2-(1H-imidazol-1-yl)ethoxy)quinazoline]	125 to 250	–	1290	8.2	IC50 (H292): 90.8 nM; IC50 (PC-9): 5.7 nM
COc1cc2c(Nc3ccc(F)c(Cl)c3)ncnc2cc1OCCn1ccnc1 [Compound 36, 4-(3-chloro-4-fluoroanilino)-6-methoxy-7-(2-(1H-imidazol-1-yl)ethoxy)quinazoline]	–	2920	3640	–	–
COc1cc2c(Nc3ccc(F)c(Cl)c3)ncnc2cc1OCCCCC(N)=O [Compound 41, 5-(4-(3-chloro-4-fluoroanilino)-6-methoxyquinazolin-7-yl-oxy)pentanamide]	–	2680	2710	0.9	IC50 (H292): 89.9 nM
CNC(=O)CCCCCOc1cc2ncnc(Nc3ccc(F)c(Cl)c3)c2cc1OC [Compound 42, N-methyl-6-(4-(3-chloro-4-fluoroanilino)-6-methoxyquinazolin-7-yloxy)hexanamide]	–	–	–	2.8	–
COc1cc2c(Nc3ccc(F)c(Cl)c3)ncnc2cc1OCCCCCC(=O)N(C)C [Compound 43, N, N-dimethyl-6-(4-(3-chloro-4-fluoroanilino)-6-methoxyquinazolin-7-yloxy)hexanamide]	–	–	–	4.1	–
